According to ChEMBL document CHEMBL5335852, “The Promiscuous Flavin-Dependent Monooxygenase PboD from Aspergillus ustus Increases the Structural Diversity of Hydroxylated Pyrroloindoline Diketopiperazines” (J Nat Prod, 2024):
Activity calls are given as the source filed them.

Key:
Assay type in all cases: functional, organism-based
[1] = system: Escherichia coli; test: Antibacterial activity against Escherichia coli ATCC 35218 assessed as inhibition of bacterial growth incubated for 20 hrs by agar disk-diffusion method
[2] = system: Enterococcus faecalis; test: Antibacterial activity against Enterococcus faecalis DSM 2570 assessed as inhibition of bacterial growth incubated for 20 hrs by agar disk-diffusion method
[3] = system: Klebsiella pneumoniae; test: Antibacterial activity against Klebsiella pneumoniae DSM 26371 assessed as inhibition of bacterial growth incubated for 20 hrs by agar disk-diffusion method
[4] = system: Bacillus subtilis; test: Antibacterial activity against Bacillus subtilis […] assessed as inhibition of bacterial growth incubated for 20 hrs by agar disk-diffusion method
[5] = system: Niallia circulans; test: Antibacterial activity against Bacillus circulans NRRL B-380 assessed as inhibition of bacterial growth incubated for 20 hrs by agar disk-diffusion method
[6] = system: Staphylococcus aureus; test: Antibacterial activity against Staphylococcus aureus ATCC29213 assessed as inhibition of bacterial growth incubated for 20 hrs by agar disk-diffusion method
[7] = system: Staphylococcus delphini; test: Antibacterial activity against Staphylococcus delphini DSM 20771 assessed as inhibition of bacterial growth incubated for 20 hrs by agar disk-diffusion method
[8] = system: Pseudomonas aeruginosa; test: Antibacterial activity against Pseudomonas aeruginosa ATCC 27853 assessed as inhibition of bacterial growth incubated for 20 hrs by agar disk-diffusion method

Measured: Activity

CSCC[C@@H]1NC(=O)[C@@H]2C[C@@]3(O)c4ccccc4N[C@H]3N2C1=O
inactive: all assays above

O=C1N[C@@H](Cc2ccc(O)cc2)C(=O)N2[C@H]1C[C@@]1(O)c3ccccc3N[C@@H]21
inactive: all assays above

O=C1N[C@@H](Cc2c[nH]c3ccccc23)C(=O)N2[C@H]1C[C@@]1(O)c3ccccc3N[C@@H]21
inactive: all assays above

CC(C)C[C@@H]1NC(=O)[C@@H]2C[C@@]3(O)c4ccccc4N[C@H]3N2C1=O
inactive: all assays above

C[C@@H]1NC(=O)[C@@H]2C[C@@]3(O)c4ccccc4N[C@H]3N2C1=O
inactive: all assays above

O=C1N[C@@H](Cc2ccccc2)C(=O)N2[C@H]1C[C@@]1(O)c3ccccc3N[C@@H]21
inactive: all assays above
